{"source": "paper PMC8770518", "about": "“Evolutionary alterations in gene expression and enzymatic activities of gibberellin 3-oxidase 1 in Oryza” (Communications Biology, 2022)", "key": {"OsGA3ox2": {"molecular_target": "T1, OsGA3ox2 (Oryza sativa, UniProt Q9FU53)", "T1 construct": "gene GA3OX2; crystallised without Fe(II)", "experiment": "X-ray crystallography, […] A", "type": "binding", "conditions": "Fe(II) omitted, active site"}, "GID1": {"molecular_target": "T2, GID1 (Oryza sativa, UniProt Q6L545)", "T2 construct": "yeast two-hybrid fusions: GID1 bait in pGBKT7, SLR1 prey in pGADT7; with DELLA protein SLR1", "T2 sequence (Q6L545 1-354)": "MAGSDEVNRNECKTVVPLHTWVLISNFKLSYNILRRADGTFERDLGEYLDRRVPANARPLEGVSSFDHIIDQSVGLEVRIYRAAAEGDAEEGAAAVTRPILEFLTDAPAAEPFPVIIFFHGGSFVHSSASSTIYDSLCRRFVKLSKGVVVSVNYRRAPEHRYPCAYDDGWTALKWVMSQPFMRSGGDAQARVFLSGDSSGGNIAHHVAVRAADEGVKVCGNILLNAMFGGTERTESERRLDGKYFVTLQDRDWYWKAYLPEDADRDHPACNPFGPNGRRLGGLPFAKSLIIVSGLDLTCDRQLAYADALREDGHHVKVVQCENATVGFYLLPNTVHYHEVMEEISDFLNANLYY", "T2 sequence (Q7G7J6 1-625 partner)": "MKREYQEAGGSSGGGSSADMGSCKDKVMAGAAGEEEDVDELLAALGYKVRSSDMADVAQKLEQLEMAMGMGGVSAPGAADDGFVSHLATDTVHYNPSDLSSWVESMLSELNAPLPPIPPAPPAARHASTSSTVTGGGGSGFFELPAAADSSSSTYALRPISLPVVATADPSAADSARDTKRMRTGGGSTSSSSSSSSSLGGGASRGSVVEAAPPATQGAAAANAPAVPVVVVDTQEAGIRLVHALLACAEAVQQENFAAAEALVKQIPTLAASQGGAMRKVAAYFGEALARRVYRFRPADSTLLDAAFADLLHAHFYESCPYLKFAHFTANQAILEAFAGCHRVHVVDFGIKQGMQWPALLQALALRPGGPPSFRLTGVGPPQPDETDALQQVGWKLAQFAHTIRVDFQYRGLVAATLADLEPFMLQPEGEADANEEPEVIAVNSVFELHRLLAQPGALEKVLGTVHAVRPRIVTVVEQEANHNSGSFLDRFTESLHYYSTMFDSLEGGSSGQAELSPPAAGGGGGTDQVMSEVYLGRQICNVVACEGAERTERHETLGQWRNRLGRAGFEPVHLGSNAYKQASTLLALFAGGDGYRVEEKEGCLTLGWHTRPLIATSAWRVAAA", "experiment": "yeast two-hybrid GID1-SLR1 interaction (-His growth)", "type": "cell-based", "conditions": "GA-dependent interaction with SLR1; GA 1e-10 to 1e-5 M"}, "OsGA3ox1 [1]": {"molecular_target": "T3, OsGA3ox1 (Oryza sativa, UniProt Q6AT12)", "T3 construct": "gene GA3OX1", "experiment": "in vitro 3-oxidation, gas chromatography of products", "type": "biochemical", "conditions": "products GA4 and GA7"}, "OsGA3ox1 [2]": {"molecular_target": "T4, OsGA3ox1 (Oryza sativa, UniProt Q6AT12, F235Y)", "T4 construct": "gene GA3OX1", "T4 sequence (Q6AT12 1-384 F235Y)": "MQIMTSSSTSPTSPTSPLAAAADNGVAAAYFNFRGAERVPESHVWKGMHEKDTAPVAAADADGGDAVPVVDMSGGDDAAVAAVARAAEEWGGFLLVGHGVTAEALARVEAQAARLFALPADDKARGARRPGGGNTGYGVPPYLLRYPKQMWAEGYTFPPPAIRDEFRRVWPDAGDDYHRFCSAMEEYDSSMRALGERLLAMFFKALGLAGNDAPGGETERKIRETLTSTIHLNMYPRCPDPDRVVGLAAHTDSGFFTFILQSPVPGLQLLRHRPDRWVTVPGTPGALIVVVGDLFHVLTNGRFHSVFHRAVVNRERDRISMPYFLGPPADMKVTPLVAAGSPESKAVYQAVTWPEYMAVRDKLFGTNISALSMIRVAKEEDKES", "experiment": "in vitro 3-oxidation, gas chromatography of products", "type": "biochemical", "conditions": "products GA4 and GA7"}}}
{"smiles": "O=C(O)CCC(=O)C(=O)O", "note": "[2-oxoglutarate]", "values": [{"measurement": "X-ray crystallography, 1.9 A", "setting": "OsGA3ox2; complex with GA9, 10 mM 2-oxoglutarate, pH 7.0", "result": "structure of the OsGA3ox2 complex with (co-) substrates; GA9 and 2-oxoglutarate (2OG)"}]}
{"smiles": "C=C1C[C@]23C[C@H]1CC[C@H]2[C@@]12CC[C@H](O)[C@@](C)(C(=O)O1)[C@H]2[C@@H]3C(=O)O", "note": "[GA4]", "values": [{"measurement": "yeast two-hybrid GID1-SLR1 interaction (-His growth)", "setting": "GID1", "result": "GA7 showed the highest efficiency among all GA ligands, followed by GA4"}]}
{"smiles": "C=C1C[C@]23C[C@H]1CC[C@H]2[C@@]12C=C[C@H](O)[C@@](C)(C(=O)O1)[C@H]2[C@@H]3C(=O)O", "note": "[GA7]", "values": [{"measurement": "yeast two-hybrid GID1-SLR1 interaction (-His growth)", "setting": "GID1", "result": "GA7 showed the highest efficiency among all GA ligands, followed by GA4"}]}
{"smiles": "C=C1C[C@]23C[C@H]1CC[C@H]2[C@@]12CCC[C@@](C)(C(=O)O1)[C@H]2[C@@H]3C(=O)O", "note": "[GA9]", "values": [{"measurement": "X-ray crystallography, 1.9 A", "setting": "OsGA3ox2; complex with 2-oxoglutarate, 0.5 mM GA9, pH 7.0", "result": "structure of the OsGA3ox2 complex with (co-) substrates; GA9 and 2-oxoglutarate (2OG)"}, {"measurement": "in vitro 3-oxidation, gas chromatography of products", "setting": "OsGA3ox1 [1]", "result": "GA biosynthesis activities of recombinant OsGA3ox1 and OsGA3ox2 for GA9 as a substrate"}, {"measurement": "in vitro 3-oxidation, gas chromatography of products", "setting": "OsGA3ox1 [2]", "result": "The productivity of GA7 was lower in F235Y-OsGA3ox1 than that in OsGA3ox1"}]}
